Results reported in patent publication US20100298141A1, “SUBSTITUTED PYRIDINE N-OXIDE HERBICIDES” (E. I. DU PONT DE NEMOURS AND COMPANY, priority 2007, published 2010).

Tests used:
barnyardgrass [1] = assay: Test A pre-/postemergence greenhouse test; assay type: in vivo, Echinochloa crus-galli; settings: for Plant response rating, Barnyardgrass: 0 to 100 scale where 0 is no effect and 100 is complete control; for Barnyardgrass plant response rating: 0 to 100 scale
Outline: (§1)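 Seeds sown in a loam soil–sand blend got a preemergence directed soil spray of compound in a non-phytotoxic solvent mixture containing surfactant. Postemergence sprays of the same formulation went at the same time onto plants 2–10 cm tall at the one- to two-leaf stage. Injury was scored visually against untreated controls after about ten days in the greenhouse.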

crabgrass [2] = assay: Test A pre-/postemergence greenhouse test; assay type: in vivo, Digitaria sanguinalis; settings: for Plant response rating, Crabgrass, Large: 0 to 100 scale where 0 is no effect and 100 is complete control; for Crabgrass, Large plant response rating: 0 to 100 scale
Outline: as §1

giant foxtail = assay: Test A pre-/postemergence greenhouse test; assay type: in vivo, Setaria faberi; settings: for Plant response rating, Foxtail, Giant: 0 to 100 scale where 0 is no effect and 100 is complete control; for Foxtail, Giant plant response rating: 0 to 100 scale
Outline: as §1

morningglory = assay: Test A pre-/postemergence greenhouse test; assay type: in vivo, Ipomoea spp.; settings: for Plant response rating, Morningglory: 0 to 100 scale where 0 is no effect and 100 is complete control; for Morningglory plant response rating: 0 to 100 scale
Outline: as §1

Italian ryegrass = assay: Test C pre-/postemergence test; assay type: in vivo, Lolium multiflorum
Outline: (§2)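 Test chemicals were formulated with surfactant in a non-phytotoxic solvent and sprayed both on freshly planted seeds (preemergence) and on 1- to 4-leaf plants of 2–18 cm (postemergence). Flooded-paddy pots received compound directly into 3 cm of standing water, maintained for the test.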

bermudagrass = assay: Test C pre-/postemergence test; assay type: in vivo, Cynodon dactylon
Outline: as §2

Surinam grass = assay: Test C pre-/postemergence test; assay type: in vivo, Brachiaria decumbens
Outline: as §2

cocklebur = assay: Test C pre-/postemergence test; assay type: in vivo, Xanthium strumarium
Outline: as §2

crabgrass [3] = assay: Test C pre-/postemergence test; assay type: in vivo, Digitaria sanguinalis
Outline: as §2

Goosegrass = assay: Test C pre-/postemergence test; assay type: in vivo, Eleusin indica
Outline: as §2

kochia = assay: Test C pre-/postemergence test; assay type: in vivo, Kochia scoparia
Outline: as §2

lambsquarters = assay: Test C pre-/postemergence test; assay type: in vivo, Chenopodium album
Outline: as §2

pigweed = assay: Test C pre-/postemergence test; assay type: in vivo, Amaranthus retroflexus
Outline: as §2

soybean = assay: Test C pre-/postemergence test; assay type: in vivo, Glycine max
Outline: as §2

[4] = test system: common (oilseed) sunflower; assay: Test C pre-/postemergence test; assay type: in vivo, Helianthus annuus
Outline: as §2

umbrella sedge = assay: Test C flooded paddy test; assay type: in vivo, Cyperus difformis; settings: Flood
Outline: (§3)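 Greenhouse pots flooded to 3 cm above soil at time of treatment received compound via the water, which stayed at that level.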

barnyardgrass [5] = assay: Test C flooded paddy test; assay type: in vivo, Echinochloa crus-galli; settings: Flood
Outline: as §3

[6] = Postemergence, 500 g ai/ha, 0 is no effect, 100 is complete control
[7] = Preemergence, 125 g ai/ha, 0 no effect, 100 complete control
[8] = 62 g ai/ha, Preemergence, scale 0 to 100
[9] = 125 g ai/ha, preemergence, scale 0 (no effect) to 100 (complete control)
[10] = Preemergence, 31 g ai/ha, scale 0 to 100 (0 no effect, 100 complete control)
[11] = preemergence, 250 g ai/ha, scale 0 (no effect) to 100 (complete control)
[12] = 62 g ai/ha, scale 0 to 100 (0 no effect, 100 complete control)
[13] = 250 g ai/ha, scale 0 to 100, 0 no effect, 100 complete control, 13 to 15 days

Cn1nc(C(F)(F)C(F)(F)F)c(C[S+]([O-])c2ccc(Cl)c[n+]2[O-])c1OCC(F)(F)F (centres unmarked) [Compound 92]
Plant response rating, Barnyardgrass (barnyardgrass [1]; Postemergence, 125 g ai/ha): 70 | Barnyardgrass plant response rating (barnyardgrass [1]; [6]): 90 | Barnyardgrass plant response rating (barnyardgrass [1]; [7]): 60 | Plant response rating, Barnyardgrass (barnyardgrass [1]; Preemergence, 500 g ai/ha): 90 | Plant response rating, Crabgrass, Large (crabgrass [2]; Postemergence, 125 g ai/ha): 70 | Crabgrass, Large plant response rating (crabgrass [2]; [6]): 90 | Crabgrass, Large plant response rating (crabgrass [2]; [7]): 80 | Plant response rating, Crabgrass, Large (crabgrass [2]; Preemergence, 500 g ai/ha): 90 | Plant response rating, Foxtail, Giant (giant foxtail; Postemergence, 125 g ai/ha): 80 | Foxtail, Giant plant response rating (giant foxtail; [6]): 90 | Foxtail, Giant plant response rating (giant foxtail; [7]): 90 | Plant response rating, Foxtail, Giant (giant foxtail; Preemergence, 500 g ai/ha): 100 | Plant response rating, Morningglory (morningglory; Postemergence, 125 g ai/ha): 70 | Morningglory plant response rating (morningglory; [6]): 100 | Morningglory plant response rating (morningglory; [7]): 100 | Plant response rating, Morningglory (morningglory; Preemergence, 500 g ai/ha): 100 | Ryegrass, Italian plant response rating (Italian ryegrass; [8]): 80 | Ryegrass, Italian plant response rating (Italian ryegrass; [9]): 100 | Plant response rating, Ryegrass, Italian (Italian ryegrass; [10]): 60 | Ryegrass, Italian plant response rating (Italian ryegrass; [11]): 100 | Bermudagrass plant response rating (bermudagrass; 62 g ai/ha, Preemergence, scale 0 to 100 (0 no effect, 100 complete control)): 100 | Bermudagrass plant response rating (bermudagrass; [9]): 100 | Plant response rating, Bermudagrass (bermudagrass; [10]): 100 | Bermudagrass plant response rating (bermudagrass; [11]): 100 | Surinam Grass plant response rating (Surinam grass; [8]): 98 | Surinam Grass plant response rating (Surinam grass; [9]): 100 | Plant response rating, Surinam Grass (Surinam grass; [10]): 70 | Surinam Grass plant response rating (Surinam grass; [11]): 100 | Cocklebur plant response rating (cocklebur; [8]): 0 | Cocklebur plant response rating (cocklebur; [9]): 0 | Plant response rating, Cocklebur (cocklebur; [10]): 0 | Cocklebur plant response rating (cocklebur; [11]): 55 | Crabgrass, Large plant response rating (crabgrass [3]; [8]): 98 | Crabgrass, Large plant response rating (crabgrass [3]; [9]): 100 | Plant response rating, Crabgrass, Large (crabgrass [3]; [10]): 95 | Crabgrass, Large plant response rating (crabgrass [3]; [11]): 100 | Goosegrass plant response rating (Goosegrass; [8]): 90 | Goosegrass plant response rating (Goosegrass; [9]): 90 | Plant response rating, Goosegrass (Goosegrass; [10]): 90 | Goosegrass plant response rating (Goosegrass; [11]): 100 | Kochia plant response rating (kochia; [8]): 100 | Kochia plant response rating (kochia; [9]): 100 | Plant response rating, Kochia (kochia; [10]): 50 | Kochia plant response rating (kochia; [11]): 100 | Lambsquarters plant response rating (lambsquarters; [8]): 100 | Lambsquarters plant response rating (lambsquarters; [9]): 100 | Plant response rating, Lambsquarters (lambsquarters; [10]): 100 | Lambsquarters plant response rating (lambsquarters; [11]): 100 | Pigweed plant response rating (pigweed; [8]): 100 | Pigweed plant response rating (pigweed; [9]): 100 | Plant response rating, Pigweed (pigweed; [10]): 80 | Pigweed plant response rating (pigweed; [11]): 100 | Plant response rating, Soybean (soybean; [10]): 0 | Soybean plant response rating (soybean; [11]): 80 | Sunflower plant response rating [4, 8]: 35 | Sunflower plant response rating [4, 9]: 70 | Plant response rating, Sunflower [4, 10]: 0 | Sunflower plant response rating [4, 11]: 85 | Plant response rating, Sedge, Umbrella (umbrella sedge; [12]): 20 | Plant response rating, Sedge, Umbrella (umbrella sedge; [13]): 100 | Plant response rating, Barnyardgrass (barnyardgrass [5]; [12]): 0 | Plant response rating, Barnyardgrass (barnyardgrass [5]; [13]): 75
